Active and inactive are the calls of the source. The calls are words filed in the database; no cut-off is given here. Square brackets hold non-standard residues; d marks the D form. Peptide text beside a SMILES is read from it. Aib = CC(C)(N)C(=O)O
How the values were obtained:
Mus musculus [1] = test: Antinociceptive activity in albino ICR mouse assessed as decrease in number of acetic acid-induced abdominal constriction at 100 ug/mouse, icv administered 5 mins prior to acetic acid challenge and measured at 5 mins post acetic acid challenge; assay type: functional, organism-based
Mus musculus [2] = test: Antinociceptive activity in albino ICR mouse assessed as decrease in number of acetic acid-induced abdominal constriction at 100 ug/mouse, icv administered 5 mins prior to acetic acid challenge and measured every 5 mins for 15 mins post acetic acid challenge; assay type: functional, organism-based
Mus musculus [3] = test: Antinociceptive activity in albino ICR mouse assessed as decrease in number of acetic acid-induced abdominal constriction at 25 to 50 ug/mouse, icv administered 5 mins prior to acetic acid challenge and measured every 5 mins for 30 mins post acetic acid challenge; assay type: functional, organism-based
Mus musculus [4] = test: Antinociceptive activity in albino ICR mouse assessed as decrease in number of acetic acid-induced abdominal constriction at 25 ug/mouse, icv administered 5 mins prior to acetic acid challenge and measured every 5 mins for 30 mins post acetic acid challenge; assay type: functional, organism-based
Mus musculus [5] = test: Antinociceptive activity in albino ICR mouse assessed as decrease in number of acetic acid-induced abdominal constriction at 100 ug/mouse, icv administered 5 mins prior to acetic acid challenge and measured every 5 mins for 10 mins post acetic acid challenge; assay type: functional, organism-based
[6] = Anodic potential of the compound at pH 6.02 by differential pulse voltammetry; assay type: physicochemical
[7] = Anodic potential of the compound at pH 8.10 by differential pulse voltammetry; assay type: physicochemical; details: pH 8.1
[8] = Anodic potential of the compound at pH 10.20 by differential pulse voltammetry; assay type: physicochemical; details: pH 10.2
[9] = Anodic potential of the compound at pH 5.02 by differential pulse voltammetry; assay type: physicochemical
[10] = Anodic potential of the compound at pH 6.86 by differential pulse voltammetry; assay type: physicochemical
[11] = Dissociation constant, pKa of the compound at pH 5.02 to 10.20 by cyclic voltammetry; assay type: physicochemical
[12] = Anodic potential of the compound at pH 9.20 by differential pulse voltammetry; assay type: physicochemical; details: pH 9.2
Mus musculus [13] = test: Antinociceptive activity in albino ICR mouse assessed as decrease in number of acetic acid-induced abdominal constriction at 25 to 100 ug/mouse, icv administered 5 mins prior to acetic acid challenge and measured every 5 mins for 30 mins post acetic acid challenge; assay type: functional, organism-based
Mus musculus [14] = test: Antinociceptive activity in albino ICR mouse assessed as decrease in number of acetic acid-induced abdominal constriction at 50 ug/mouse, icv administered 5 mins prior to acetic acid challenge and measured every 5 mins for 30 mins post acetic acid challenge; assay type: functional, organism-based
Mus musculus [15] = test: Antinociceptive activity in albino ICR mouse assessed as decrease in number of acetic acid-induced abdominal constriction at 50 to 100 ug/mouse, icv administered 5 mins prior to acetic acid challenge and measured every 5 mins for 30 mins post acetic acid challenge; assay type: functional, organism-based

Compound | Activity [6] [V] | Activity [7] [V] | Activity [8] [V] | Activity [9] [V] | Activity [10] [V] | pKa [11] | Activity [12] [V] | also measured
CC(C)[C@H](N)C(=O)N[C@H](C(=O)N[C@@H](Cc1ccc(O)cc1)C(=O)N1CCC[C@H]1C(=O)N[C@@H](Cc1c[nH]c2ccccc12)C(=O)N[C@H](C(=O)N[C@H](CCN)C(N)=O)[C@@H](C)O)C(C)C | – | – | – | – | – | – | – | Activity (Mus musculus [1]): Active; Activity (Mus musculus [2]): inactive; Activity (Mus musculus [3]): Dose-dependent effect
CC(C)[C@H](N)C(=O)N[C@H](C(=O)N[C@@H](Cc1ccc(O)cc1)C(=O)N1CCC[C@H]1C(=O)N[C@@H](Cc1c[nH]c2ccccc12)C(=O)N[C@H](C(=O)N[C@H](CCCCN)C(N)=O)[C@@H](C)O)C(C)C | – | – | – | – | – | – | – | Activity (Mus musculus [4]): Active; Activity (Mus musculus [5]): Active
CC(C)[C@H](NC(=O)[C@@H](NC(=O)C(C)(C)N)C(C)C)C(=O)N[C@@H](Cc1ccc(O)cc1)C(=O)N1CCC[C@H]1C(=O)N[C@@H](Cc1c[nH]c2ccccc12)C(=O)N[C@H](C(=O)N[C@@H](CCC(N)=O)C(N)=O)[C@@H](C)O (H-[Aib]VVYPWTQ-NH2) | 0.175 | 0.025 | 0.03 | 0.232 | 0.101 | 8.17 | 0.031 | Activity (Mus musculus [13]): inactive
CC[C@H](C)[C@@H](N)C(=O)N[C@H](C(=O)N[C@H](C(=O)N[C@@H](Cc1ccc(O)cc1)C(=O)N1CCC[C@H]1C(=O)N[C@@H](Cc1c[nH]c2ccccc12)C(=O)N[C@H](C(=O)N[C@@H](CCC(N)=O)C(N)=O)[C@@H](C)O)C(C)C)C(C)C | – | – | – | – | – | – | – | Activity (Mus musculus [5]): inactive; Activity (Mus musculus [3]): Dose-dependent effect
CC[C@H](C)[C@H](N)C(=O)N[C@H](C(=O)N[C@H](C(=O)N[C@@H](Cc1ccc(O)cc1)C(=O)N1CCC[C@H]1C(=O)N[C@@H](Cc1c[nH]c2ccccc12)C(=O)N[C@H](C(=O)N[C@@H](CCC(N)=O)C(N)=O)[C@@H](C)O)C(C)C)C(C)C | 0.16 | 0.062 | 0.06 | 0.213 | 0.11 | 8.01 | 0.067 | –
CC(C)[C@H](N)C(=O)N[C@H](C(=O)N[C@@H](Cc1ccc(O)cc1)C(=O)N1CCC[C@H]1C(=O)N[C@@H](Cc1c[nH]c2ccccc12)C(=O)N[C@H](C(=O)N[C@H](CCCN)C(N)=O)[C@@H](C)O)C(C)C | – | – | – | – | – | – | – | Activity (Mus musculus [4]): inactive; Activity (Mus musculus [14]): Active
CC(C)[C@H](N)C(=O)N[C@H](C(=O)N[C@@H](Cc1ccc(O)cc1)C(=O)N1CCC[C@H]1C(=O)N[C@@H](Cc1c[nH]c2ccccc12)C(=O)N[C@H](C(=O)N[C@H](CN)C(N)=O)[C@@H](C)O)C(C)C | – | – | – | – | – | – | – | Activity (Mus musculus [13]): Active

The next lines start with results.

Activity [6] [V] | Activity [7] [V] | Activity [8] [V] | Activity [9] [V] | Activity [10] [V] | pKa [11] | Activity [12] [V] | Compound | also measured
0.175 | 0.075 | 0.079 | 0.225 | 0.117 | 7.83 | 0.082 | CC(C)[C@H](N)C(=O)N[C@H](C(=O)N[C@@H](Cc1ccc(O)cc1)C(=O)N1CCC[C@H]1C(=O)N[C@@H](Cc1c[nH]c2ccccc12)C(=O)N[C@H](C(=O)N[C@@H](CCCN)C(N)=O)[C@@H](C)O)C(C)C | –
0.15 | 0.071 | 0.057 | 0.211 | 0.125 | 8.24 | 0.055 | CC(C)[C@H](N)C(=O)N[C@H](C(=O)N[C@@H](Cc1ccc(O)cc1)C(=O)N1CCC[C@H]1C(=O)N[C@@H](Cc1c[nH]c2ccccc12)C(=O)N[C@H](C(=O)N[C@@H](CCCCN)C(N)=O)[C@@H](C)O)C(C)C | –
0.13 | 0.009 | 0 | 0.23 | 0.07 | 8.12 | 0.001 | CC(C)[C@H](N)C(=O)N[C@H](C(=O)N[C@@H](Cc1ccc(O)cc1)C(=O)N1CCC[C@H]1C(=O)N[C@@H](Cc1c[nH]c2ccccc12)C(=O)N[C@H](C(=O)N[C@@H](CCN)C(N)=O)[C@@H](C)O)C(C)C | –
0.151 | 0.046 | 0.046 | 0.225 | 0.048 | 7.13 | 0.046 | H-VVYPWTQ-NH2 | Activity (Mus musculus [4]): inactive; Activity (Mus musculus [15]): Active
0.207 | 0.085 | 0.001 | 0.225 | 0.15 | 9.23 | 0.008 | CC(C)[C@H](N)C(=O)N[C@H](C(=O)N[C@@H](Cc1ccc(O)cc1)C(=O)N1CCC[C@H]1C(=O)N[C@@H](Cc1c[nH]c2ccccc12)C(=O)N[C@H](C(=O)N[C@@H](CN)C(N)=O)[C@@H](C)O)C(C)C | –

— ChEMBL document CHEMBL4229501, “Synthesis, characterization and nociceptive screening of new VV-hemorphin-5 analogues” (Bioorg Med Chem Lett, 2018)
